From patent US12490739B2, “Synergistically effective fungicide composition comprising choline phosphonate and at least one additional fungicide” (BELCHIM CROP PROTECTION NV, priority 2019, dated 2025)

Tests used:
Format in all cases: in vivo
Plasmopara viticola [1] = assay: Example 6 field trials, Vitis vinifera infected with downy mildew; settings: 120 g a.c./ha
Plasmopara viticola [2] = assay: Example 7 field trial, Vitis vinifera var. Merlot infected with downy mildew, France; settings: 130 g a.c./ha
Venturia inaequalis = assay: Example 5 field trials, apple (Malus domestica var. Golden delicious) infected with scab; settings: 60 g a.c./ha
Sphaerotheca fuliginea = assay: Example 3 field trial, cucumber (Cucumis sativus var. Bosco) infected with powdery mildew, Italy; settings: 2080 g a.c./ha
Uncinula necator = assay: Example 12 field trial, Vitis vinifera var. Carignan infected with powdery mildew, France; settings: 2320 g a.c./ha
Podosphaera leucotricha = assay: Example 13 field trials, apple (Malus domestica var. Gold Rush, var. Morgenduft Dallago) infected with powdery mildew; settings: 2640 g a.c./ha

CCC(C)(NC(=O)c1cc(Cl)c(C)c(Cl)c1)C(=O)CCl (racemic) [ZOX, (RS)-3,5-dichloro-N-(3-chloro-1-ethyl-1-methyl-2-oxopropyl)-ptoluamide]
ZOX f.e. (%) (Plasmopara viticola [1]; PESINC, location 1 (France, Negrette), 50 bunches, 1 DA-A6, BBCH 69): 73.0% | ZOX f.e. (%) (Plasmopara viticola [1]; PESINC, location 1 (France, Negrette), 50 bunches, 1 DA-A8, BBCH 75): 18.0% | ZOX f.e. (%) (Plasmopara viticola [1]; PESINC, location 1 (France, Negrette), 50 bunches, 16 DA-A9, BBCH 81): 1.0% | ZOX f.e. (%) (Plasmopara viticola [1]; PESINC, location 2 (France, Grenache), 50 bunches, 9 DA-A4, BBCH 71): 10.0% | ZOX f.e. (%) (Plasmopara viticola [1]; PESINC, location 2 (France, Grenache), 50 bunches, 9 DA-A4, BBCH 77): 0.0% | ZOX f.e. (%) (Plasmopara viticola [1]; PESINC, location 2 (France, Grenache), 100 leaves, 6 DA-A5, BBCH 77): 0.0% | ZOX f.e. (%) (Plasmopara viticola [1]; PESINC, location 2 (France, Grenache), 100 leaves, 9 DA-A4, BBCH 71): 22.8% | ZOX f.e. (%) (Plasmopara viticola [1]; PESINC, location 3 (Germany, Mueller-Thurgau), 50 bunches, 11 DA-A4, BBCH 75): 48.8% | ZOX f.e. (%) (Plasmopara viticola [1]; PESINC, location 3 (Germany, Mueller-Thurgau), 100 leaves, 7 DA-A8, BBCH 83): 16.0% | ZOX f.e. (%) (Plasmopara viticola [1]; PESINC, location 3 (Germany, Mueller-Thurgau), 100 leaves, 13 DA-A6, BBCH 83): 18.7% | ZOX f.e. (%) (Plasmopara viticola [1]; PESSEV, location 1 (France, Negrette), 50 bunches, 1 DA-A8, BBCH 75): 75.2% | ZOX f.e. (%) (Plasmopara viticola [1]; PESSEV, location 1 (France, Negrette), 50 bunches, 16 DA-A9, BBCH 81): 51.7% | ZOX f.e. (%) (Plasmopara viticola [1]; PESSEV, location 2 (France, Grenache), 50 bunches, 8 DA-A5, BBCH 77): 21.4% | ZOX f.e. (%) (Plasmopara viticola [1]; PESSEV, location 2 (France, Grenache), 50 bunches, 9 DA-A4, BBCH 71): 81.3% | ZOX f.e. (%) (Plasmopara viticola [1]; PESSEV, location 2 (France, Grenache), 50 bunches, 9 DA-A6, BBCH 79): 1.3% | ZOX f.e. (%) (Plasmopara viticola [1]; PESSEV, location 2 (France, Grenache), 100 leaves, 6 DA-A5, BBCH 77): 15.1% | ZOX f.e. (%) (Plasmopara viticola [1]; PESSEV, location 2 (France, Grenache), 100 leaves, 9 DA-A4, BBCH 71): 67.7% | ZOX f.e. (%) (Plasmopara viticola [1]; PESSEV, location 3 (Germany, Mueller-Thurgau), 50 bunches, 7 DA-A8, BBCH 83): 48.9% | ZOX f.e. (%) (Plasmopara viticola [1]; PESSEV, location 3 (Germany, Mueller-Thurgau), 50 bunches, 11 DA-A4, BBCH 75): 80.2% | ZOX f.e. (%) (Plasmopara viticola [1]; PESSEV, location 3 (Germany, Mueller-Thurgau), 50 bunches, 13 DA-A6, BBCH 83): 49.2% | ZOX f.e. (%) (Plasmopara viticola [1]; PESSEV, location 3 (Germany, Mueller-Thurgau), 100 leaves, 13 DA-A6, BBCH 83): 52.1%

O=C(NCc1ncc(C(F)(F)F)cc1Cl)c1c(Cl)cccc1Cl [FLU, 2,6-dichloro-N-[[3-chloro-5-(trifluoromethyl)pyridin-2-yl]methyl]benzamide]
FLU f.e. (%) (Plasmopara viticola [2]; PESINC, 50 bunches, 0 DA-A3, BBCH 73): 84.4% | FLU f.e. (%) (Plasmopara viticola [2]; PESINC, 50 bunches, 0 DA-A5, BBCH 77): 37.5% | FLU f.e. (%) (Plasmopara viticola [2]; PESINC, 50 bunches, 9 DA-A6, BBCH 83): 14.5% | FLU f.e. (%) (Plasmopara viticola [2]; PESINC, 100 leaves, 0 DA-A3, BBCH 73): 62.3% | FLU f.e. (%) (Plasmopara viticola [2]; PESINC, 100 leaves, 0 DA-A5, BBCH 77): 47.8% | FLU f.e. (%) (Plasmopara viticola [2]; PESINC, 100 leaves, 9 DA-A6, BBCH 83): 32.2% | FLU f.e. (%) (Plasmopara viticola [2]; PESSEV, 50 bunches, 0 DA-A5, BBCH 77): 83.6% | FLU f.e. (%) (Plasmopara viticola [2]; PESSEV, 50 bunches, 9 DA-A6, BBCH 83): 46.8%

Cc1cc(OC(C)C)ccc1C(=O)C(C)(C)NC(=O)c1sccc1C [ISO, N-[1,1-dimethyl-2-(4-isopropoxy-o-tolyl)-2-oxoethyl]-3-methylthiophene-2-carboxamide]
ISO f.e. (%) (Venturia inaequalis; PESINC, location 1 (France), 6 DA-A4, BBCH 72): 13.3% | ISO f.e. (%) (Venturia inaequalis; PESINC, location 2 (Italy), 4 DA-A11, BBCH 75): 4.1% | ISO f.e. (%) (Venturia inaequalis; PESINC, location 2 (Italy), 6 DA-A9, BBCH 74): 12.1% | ISO f.e. (%) (Venturia inaequalis; PESINC, location 2 (Italy), 6 DA-A13, BBCH 77): 5.5% | ISO f.e. (%) (Venturia inaequalis; PESINC, location 2 (Italy), 7 DA-A6, BBCH 72): 16.8% | ISO f.e. (%) (Venturia inaequalis; PESINC, location 3 (Belgium), 31 DA-A9, BBCH 73): 8.7% | ISO f.e. (%) (Venturia inaequalis; PESINC, location 3 (Belgium), 80 DA-A9, BBCH 73): 2.2% | ISO f.e. (%) (Venturia inaequalis; PESSEV, location 2 (Italy), 4 DA-A11, BBCH 75): 22.6% | ISO f.e. (%) (Venturia inaequalis; PESSEV, location 2 (Italy), 6 DA-A9, BBCH 74): 25.3% | ISO f.e. (%) (Venturia inaequalis; PESSEV, location 2 (Italy), 6 DA-A13, BBCH 77): 27.7% | ISO f.e. (%) (Venturia inaequalis; PESSEV, location 2 (Italy), 7 DA-A6, BBCH 72): 32.9%

S1SSSSSSS1 [S, sulphur]
S f.e. (%) (Sphaerotheca fuliginea; PESINC curative, 7 DA-A2, BBCH 73): 85.1% | S f.e. (%) (Sphaerotheca fuliginea; PESINC curative, 7 DA-A3, BBCH 76): 87.5% | S f.e. (%) (Sphaerotheca fuliginea; PESINC curative, 7 DA-A4, BBCH 77): 77.5% | S f.e. (%) (Sphaerotheca fuliginea; PESINC curative, 14 DA-A4, BBCH 78): 58.9% | S f.e. (%) (Sphaerotheca fuliginea; PESINC, 7 DA-A2, BBCH 73): 88.1% | S f.e. (%) (Sphaerotheca fuliginea; PESINC, 7 DA-A3, BBCH 76): 95% | S f.e. (%) (Sphaerotheca fuliginea; PESINC, 7 DA-A4, BBCH 77): 85.0% | S f.e. (%) (Sphaerotheca fuliginea; PESINC, 14 DA-A4, BBCH 78): 75.2% | S f.e. (%) (Sphaerotheca fuliginea; PESINC, 21 DA-A4, BBCH 79): 69.7% | S f.e. (%) (Sphaerotheca fuliginea; PESSEV curative, 7 DA-A2, BBCH 73): 93.6% | S f.e. (%) (Sphaerotheca fuliginea; PESSEV curative, 7 DA-A3, BBCH 76): 96% | S f.e. (%) (Sphaerotheca fuliginea; PESSEV curative, 7 DA-A4, BBCH 77): 95% | S f.e. (%) (Sphaerotheca fuliginea; PESSEV curative, 14 DA-A4, BBCH 78): 93.4% | S f.e. (%) (Sphaerotheca fuliginea; PESSEV, 7 DA-A2, BBCH 73): 96.7% | S f.e. (%) (Sphaerotheca fuliginea; PESSEV, 7 DA-A4, BBCH 77): 97.6% | S f.e. (%) (Sphaerotheca fuliginea; PESSEV, 14 DA-A4, BBCH 78): 96.3% | S f.e. (%) (Sphaerotheca fuliginea; PESSEV, 21 DA-A4, BBCH 79): 96.9% | S f.e. (%) (Uncinula necator; PESINC, 50 bunches, 14 DA-A3, BBCH 77): 5.1% | S f.e. (%) (Uncinula necator; PESINC, 50 bunches, 14 DA-A3, BBCH 77, second listing (r34)): 1.2% | S f.e. (%) (Uncinula necator; PESINC, 50 bunches, 14 DA-A5, BBCH 83): 37.6% | S f.e. (%) (Uncinula necator; PESINC, 50 bunches, 14 DA-A5, BBCH 83, second listing (r36)): 0% | S f.e. (%) (Uncinula necator; PESINC, 100 leaves, 14 DA-A3, BBCH 77): 42.8% | S f.e. (%) (Uncinula necator; PESINC, 100 leaves, 14 DA-A3, BBCH 77, second listing (r32)): 6.3% | S f.e. (%) (Uncinula necator; PESSEV, 50 bunches, 14 DA-A3, BBCH 77): 50.8% | S f.e. (%) (Uncinula necator; PESSEV, 50 bunches, 14 DA-A3, BBCH 77, second listing (r28)): 6.0% | S f.e. (%) (Uncinula necator; PESSEV, 50 bunches, 14 DA-A5, BBCH 83): 14.2% | S f.e. (%) (Uncinula necator; PESSEV, 50 bunches, 14 DA-A5, BBCH 83, second listing (r30)): 18.9% | S f.e. (%) (Uncinula necator; PESSEV, 100 leaves, 14 DA-A3, BBCH 77): 18.7% | S f.e. (%) (Uncinula necator; PESSEV, 100 leaves, 14 DA-A3, BBCH 77, second listing (r26)): 13.9% | S f.e. (%) (Podosphaera leucotricha; PESINC, location 1 (France), 20 shoots, 7 DA-A5, BBCH 71): 80.0% | S f.e. (%) (Podosphaera leucotricha; PESINC, location 1 (France), 100 leaves, 5 DA-A8, BBCH 74): 88.1% | S f.e. (%) (Podosphaera leucotricha; PESINC, location 1 (France), 100 leaves, 6 DA-A6, BBCH 74): 59.1% | S f.e. (%) (Podosphaera leucotricha; PESINC, location 1 (France), 100 leaves, 15 DA-A8, BBCH 76): 80.7% | S f.e. (%) (Podosphaera leucotricha; PESINC, location 2 (Italy), 5 leaves, 5 DA-A6, BBCH 74): 63.9% | S f.e. (%) (Podosphaera leucotricha; PESINC, location 2 (Italy), 40 shoots, 2 DA-A10, BBCH 74): 62.4% | S f.e. (%) (Podosphaera leucotricha; PESINC, location 2 (Italy), 40 shoots, 6 DA-A5, BBCH 71): 57.8% | S f.e. (%) (Podosphaera leucotricha; PESINC, location 2 (Italy), 40 shoots, 6 DA-A11, BBCH 74): 59.4% | S f.e. (%) (Podosphaera leucotricha; PESSEV, location 1 (France), 100 leaves, 6 DA-A6, BBCH 74): 64.1% | S f.e. (%) (Podosphaera leucotricha; PESSEV, location 1 (France), 100 leaves, 15 DA-A8, BBCH 76): 88.2% | S f.e. (%) (Podosphaera leucotricha; PESSEV, location 2 (Italy), 5 leaves, 2 DA-A10, BBCH 74): 82.1% | S f.e. (%) (Podosphaera leucotricha; PESSEV, location 2 (Italy), 5 leaves, 5 DA-A6, BBCH 74): 72.7% | S f.e. (%) (Podosphaera leucotricha; PESSEV, location 2 (Italy), 5 leaves, 6 DA-A11, BBCH 74): 84.4%
